Test results reported in article PMC6525201, “Targeting lonidamine to mitochondria mitigates lung tumorigenesis and brain metastasis” (Nature Communications, 2019).

Experiments:
mitochondrial complex I = target: T1, mitochondrial complex I (Homo sapiens, UniProt O75251+O75306+P03886); test: oxygen consumption rate, Seahorse XF96, permeabilized cells; type: cell-based
T1 construct: gene MT-ND1; native complex in permeabilized H2030BrM3 cells

mitochondrial complex II = target: T2, mitochondrial complex II (Homo sapiens, UniProt O14521+P21912+Q99643); test: as above; type: cell-based
T2 construct: gene SDHB; native complex in permeabilized H2030BrM3 cells
T2 sequence (P21912 29-280): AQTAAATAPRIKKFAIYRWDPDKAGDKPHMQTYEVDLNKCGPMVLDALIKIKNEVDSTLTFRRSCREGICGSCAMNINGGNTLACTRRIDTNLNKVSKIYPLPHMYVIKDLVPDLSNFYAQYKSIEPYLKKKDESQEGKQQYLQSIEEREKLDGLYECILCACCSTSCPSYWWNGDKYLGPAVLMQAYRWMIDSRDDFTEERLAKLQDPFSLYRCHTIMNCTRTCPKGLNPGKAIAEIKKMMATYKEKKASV
T2 sequence (Q99643 30-169): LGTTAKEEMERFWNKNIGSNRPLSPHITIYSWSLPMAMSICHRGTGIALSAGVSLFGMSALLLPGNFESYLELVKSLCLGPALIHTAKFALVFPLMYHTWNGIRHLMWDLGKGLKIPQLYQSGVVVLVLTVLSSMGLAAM
T2 sequence (O14521 57-159): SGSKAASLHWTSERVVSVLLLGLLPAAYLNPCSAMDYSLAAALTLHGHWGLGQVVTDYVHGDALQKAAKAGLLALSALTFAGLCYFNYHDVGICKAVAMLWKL
T2 sequence (P31040 43-664 partner): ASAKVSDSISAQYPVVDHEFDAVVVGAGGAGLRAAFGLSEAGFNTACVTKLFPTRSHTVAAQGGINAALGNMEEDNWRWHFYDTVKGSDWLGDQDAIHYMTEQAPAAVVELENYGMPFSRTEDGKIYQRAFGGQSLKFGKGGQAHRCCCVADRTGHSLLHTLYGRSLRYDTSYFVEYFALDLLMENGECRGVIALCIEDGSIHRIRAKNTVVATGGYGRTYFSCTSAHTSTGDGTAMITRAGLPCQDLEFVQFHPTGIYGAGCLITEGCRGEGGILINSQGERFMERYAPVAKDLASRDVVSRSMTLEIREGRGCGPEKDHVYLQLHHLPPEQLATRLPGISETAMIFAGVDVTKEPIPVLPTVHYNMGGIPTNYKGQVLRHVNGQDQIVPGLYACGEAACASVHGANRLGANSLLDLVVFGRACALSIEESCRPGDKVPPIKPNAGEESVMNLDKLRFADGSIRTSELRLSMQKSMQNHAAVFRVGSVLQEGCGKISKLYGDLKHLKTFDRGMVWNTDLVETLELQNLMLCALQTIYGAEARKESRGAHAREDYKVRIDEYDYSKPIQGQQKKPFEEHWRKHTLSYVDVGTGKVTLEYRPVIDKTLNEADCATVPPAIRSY

| SMILES | IC50 (mitochondrial complex I) | IC50 (mitochondrial complex II) |
| --- | --- | --- |
| O=C(O)c1nn(Cc2ccc(Cl)cc2Cl)c2ccccc12 [LND] | 444 µM | 390 µM |
| O=C(NCCCCCCCCCC[P+](c1ccccc1)(c1ccccc1)c1ccccc1)c1nn(Cc2ccc(Cl)cc2Cl)c2ccccc12 [Mito-LND] | 1.2 µM | 2.4 µM |
